Patent publication US10738004B2, “Cyclic compound” (Takeda Pharmaceutical Company Limited, priority 2016, dated 2020)

How the values were obtained:
[1] = target: T1, TLR4 (Mus musculus, UniProt Q9QUK6); assay: Suppressive effect on NO production (LPS-stimulated RAW264.7); type: cell-based; conditions: mouse macrophage cell line RAW264.7; compound final concentration 10 nM; LPS 1.25 ng/ml + mouse interferon gamma 0.2 ng/ml; nitrite ion in culture supernatant (DAN fluorescence)
T1 construct: measured using mouse macrophage cell line RAW264.7; endogenous in cells; host or cells: RAW264.7 (mouse macrophage cell line)
T1 sequence (Q9QUK6 26-835): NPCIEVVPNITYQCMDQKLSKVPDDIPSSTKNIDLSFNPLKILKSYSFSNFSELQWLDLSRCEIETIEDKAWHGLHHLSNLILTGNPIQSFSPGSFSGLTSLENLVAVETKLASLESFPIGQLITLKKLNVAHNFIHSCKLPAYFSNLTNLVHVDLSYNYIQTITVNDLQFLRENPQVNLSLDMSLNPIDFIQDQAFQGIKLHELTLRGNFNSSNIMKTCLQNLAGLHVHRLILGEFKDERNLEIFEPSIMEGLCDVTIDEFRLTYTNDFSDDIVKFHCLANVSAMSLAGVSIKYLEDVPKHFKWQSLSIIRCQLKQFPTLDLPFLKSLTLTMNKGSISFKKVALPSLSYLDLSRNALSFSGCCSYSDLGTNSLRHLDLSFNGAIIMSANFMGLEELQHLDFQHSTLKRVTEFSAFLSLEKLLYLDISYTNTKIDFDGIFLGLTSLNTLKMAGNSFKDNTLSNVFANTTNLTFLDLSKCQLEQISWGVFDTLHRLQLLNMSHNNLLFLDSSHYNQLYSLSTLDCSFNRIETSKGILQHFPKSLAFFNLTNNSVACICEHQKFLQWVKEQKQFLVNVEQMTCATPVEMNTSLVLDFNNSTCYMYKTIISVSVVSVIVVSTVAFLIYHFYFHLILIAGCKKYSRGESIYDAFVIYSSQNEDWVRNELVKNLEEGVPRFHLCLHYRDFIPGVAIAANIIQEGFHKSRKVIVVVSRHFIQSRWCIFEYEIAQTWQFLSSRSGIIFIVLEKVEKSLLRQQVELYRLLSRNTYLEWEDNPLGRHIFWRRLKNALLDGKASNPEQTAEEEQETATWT
T1 sequence (Q9JHF9 19-160 partner): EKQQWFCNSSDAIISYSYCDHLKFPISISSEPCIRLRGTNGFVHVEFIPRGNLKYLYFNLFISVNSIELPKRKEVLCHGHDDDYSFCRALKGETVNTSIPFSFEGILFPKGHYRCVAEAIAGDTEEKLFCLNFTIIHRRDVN
Experimental: The suppressive activity on TLR4 was measured using mouse macrophage cell line RAW264.7 and by an inhibition ratio by the test compound (compound of Example 1) against NO produced by the addition of lipopolysaccharide (LPS). The cells were prepared at 2×10^6 cells/ml in RPMI-1640 medium (phenol red free) supplemented with 10% inactivated fetal calf serum, and seeded in a 384-well plate at 6×10^4 cells/30 μL per well. The cells were cultured overnight at 37° C. under 5% CO2/95% air. The test compound dissolved in DMSO was diluted 200-fold with RPMI-1640 medium to a compound concentration of […]. The prepared test compound (10 μL) was added to the cells (final concentration 10 nM), and LPS (Sigma Ltd.) and mouse interferon gamma (Wako Pure Chemical Industries, Ltd.) were respectively added by 10 μL to the final concentrations of 1.25 ng/ml and 0.2 ng/ml. After further culturing overnight, the concentration of nitrite ion (stable metabolite of NO) in the culture supernatant was measured and used as an index of NO production. The nitrite ion concentration was quantified by adding 10 μL of a solution of 20 μg/mL 2,3-diaminonaphthalene (DAN) in 0.2N HCl to the culture supernatant (20 μL), incubating the mixture at room temperature for 10 min, adding 0.5N NaOH (10 μL), and measuring 460 nm (excitation wavelength 355 nm) fluorescence value by a plate reader EnVision (PerkinElmer). […]

CCOC(=O)C1=C[C@@H](O)CC[C@H]1S(=O)(=O)Cc1ccc(F)cc1Cl (single isomer, unassigned) [Example 1]
NO production suppression effect at 10 nM (% inhibition) [1]: 98 % inhibition
melting point: 155 to 156 °C
